# Laboratory results published in patent US10131652B2, “Pyrimidinyloxy benzene derivatives as herbicides” (E. I. DU PONT DE NEMOURS AND COMPANY, priority 2014, dated 2018).
# How the values were obtained:
# Test in all cases: Test D pre-/postemergence plant response
# Type in all cases: in vivo
# [1] = tested on: Italian ryegrass (Lolium multiflorum)
# In short: (§1)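 Visual rating, 0–100 scale (0 = no effect, 100 = complete control), versus untreated controls 13 to 15 days after treatment in greenhouse. Preemergence: seeds in loam/sand soil. Postemergence: 2 to 18 cm plants, 1- to 4-leaf stage, peat-based medium. Compounds formulated in non-phytotoxic solvent plus surfactant.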
# [2] = tested on: barnyardgrass (Echinochloa crus-galli)
# In short: as §1
# [3] = tested on: blackgrass (Alopecurus myosuroides)
# In short: as §1
# [4] = tested on: corn (Zea mays)
# In short: as §1
# [5] = tested on: galium (catchweed bedstraw, Galium aparine)
# In short: as §1
# [6] = tested on: giant foxtail (Setaria faberii)
# In short: as §1
# [7] = tested on: johnsongrass (Sorghum halepense)
# In short: as §1
# [8] = tested on: lambsquarters (Chenopodium album)
# In short: as §1
# [9] = tested on: large (Lg) crabgrass (Digitaria sanguinalis)
# In short: as §1
# [10] = tested on: morningglory (Ipomoea coccinea)
# In short: as §1
# [11] = tested on: oilseed rape (Brassica napus)
# In short: as §1
# [12] = tested on: pigweed (Amaranthus retroflexus)
# In short: as §1
# [13] = tested on: ragweed (common ragweed, Ambrosia elatior)
# In short: as §1
# [14] = tested on: soybean (Glycine max)
# In short: as §1
# [15] = tested on: velvetleaf (Abutilon theophrasti)
# In short: as §1
# [16] = tested on: waterhemp (common waterhemp, Amaranthus rudis)
# In short: as §1
# [17] = tested on: winter wheat (Triticum aestivum)
# In short: as §1
# [18] = tested on: yellow nutsedge (Cyperus esculentus)
# In short: as §1
# [19] = Postemergence, 31 g ai/ha, scale 0 to 100 (0 no effect, 100 complete control)
# [20] = Postemergence, 62 g ai/ha, scale 0 to 100, 0 no effect, 100 complete control
# [21] = Postemergence, 125 g ai/ha, scale 0 to 100, 0 no effect, 100 complete control
# [22] = Preemergence, 8 g ai/ha, scale 0 to 100 (0 no effect, 100 complete control)
# [23] = Preemergence, 16 g ai/ha, scale 0 to 100 (0 no effect, 100 complete control)
# [24] = Preemergence, 31 g ai/ha, scale 0 to 100 (0 no effect, 100 complete control)
# [25] = Preemergence, 62 g ai/ha, scale 0 to 100 (0 no effect, 100 complete control)
# [26] = Postemergence, 16 g ai/ha, scale 0 to 100 (0 no effect, 100 complete control)
smiles,measurement,setting,value
FC(F)(Cl)c1cc(-c2ccccc2Oc2ncc(Cl)cn2)no1 [Compound 143],"Ryegrass, Italian plant response rating",[1]; [19],0
same,"Plant response rating, Ryegrass, Italian",[1]; [20],0
same,"Plant response rating, Ryegrass, Italian",[1]; [21],15
same,"Plant response rating, Ryegrass, Italian",[1]; [22],0
same,"Plant response rating, Ryegrass, Italian",[1]; [23],5
same,"Plant response rating, Ryegrass, Italian",[1]; [24],5
same,"Plant response rating, Ryegrass, Italian",[1]; [25],70
same,Barnyardgrass plant response rating,[2]; [26],5
same,Barnyardgrass plant response rating,[2]; [19],5
same,"Plant response rating, Barnyardgrass",[2]; [20],10
same,"Plant response rating, Barnyardgrass",[2]; [21],65
same,"Plant response rating, Barnyardgrass",[2]; [22],5
same,"Plant response rating, Barnyardgrass",[2]; [23],20
same,"Plant response rating, Barnyardgrass",[2]; [24],70
same,"Plant response rating, Barnyardgrass",[2]; [25],98
same,Blackgrass plant response rating,[3]; [26],10
same,Blackgrass plant response rating,[3]; [19],10
same,"Plant response rating, Blackgrass",[3]; [20],20
same,"Plant response rating, Blackgrass",[3]; [21],30
same,"Plant response rating, Blackgrass",[3]; [22],0
same,"Plant response rating, Blackgrass",[3]; [23],10
same,"Plant response rating, Blackgrass",[3]; [24],15
same,"Plant response rating, Blackgrass",[3]; [25],90
same,Corn plant response rating,[4]; [26],5
same,Corn plant response rating,[4]; [19],5
same,"Plant response rating, Corn",[4]; [20],5
same,"Plant response rating, Corn",[4]; [21],10
same,"Plant response rating, Corn",[4]; [22],0
same,"Plant response rating, Corn",[4]; [23],0
same,"Plant response rating, Corn",[4]; [24],5
same,"Plant response rating, Corn",[4]; [25],100
same,Galium plant response rating,[5]; [19],70
same,"Plant response rating, Galium",[5]; [20],70
same,"Plant response rating, Galium",[5]; [21],100
same,"Plant response rating, Galium",[5]; [22],10
same,"Plant response rating, Galium",[5]; [23],10
same,"Plant response rating, Galium",[5]; [24],80
same,"Plant response rating, Galium",[5]; [25],80
same,"Foxtail, Giant plant response rating",[6]; [26],5
same,"Foxtail, Giant plant response rating",[6]; [19],10
same,"Plant response rating, Foxtail, Giant",[6]; [20],10
same,"Plant response rating, Foxtail, Giant",[6]; [21],50
same,"Plant response rating, Foxtail, Giant",[6]; [22],40
same,"Plant response rating, Foxtail, Giant",[6]; [23],85
same,"Plant response rating, Foxtail, Giant",[6]; [24],100
same,"Plant response rating, Foxtail, Giant",[6]; [25],100
same,Johnsongrass plant response rating,[7]; [19],5
same,"Plant response rating, Johnsongrass",[7]; [20],30
same,"Plant response rating, Johnsongrass",[7]; [21],30
same,"Plant response rating, Johnsongrass",[7]; [22],35
same,"Plant response rating, Johnsongrass",[7]; [23],15
same,"Plant response rating, Johnsongrass",[7]; [24],60
same,"Plant response rating, Johnsongrass",[7]; [25],80
same,Lambsquarters plant response rating,[8]; [19],80
same,"Plant response rating, Lambsquarters",[8]; [20],98
same,"Plant response rating, Lambsquarters",[8]; [21],100
same,"Plant response rating, Lambsquarters",[8]; [22],25
same,"Plant response rating, Lambsquarters",[8]; [23],70
same,"Plant response rating, Lambsquarters",[8]; [24],85
same,"Plant response rating, Lambsquarters",[8]; [25],85
same,"Crabgrass, Large plant response rating",[9]; [26],10
same,"Crabgrass, Large plant response rating",[9]; [19],10
same,"Plant response rating, Crabgrass, Large",[9]; [20],15
same,"Plant response rating, Crabgrass, Large",[9]; [21],35
same,"Plant response rating, Crabgrass, Large",[9]; [22],60
same,"Plant response rating, Crabgrass, Large",[9]; [23],98
same,"Plant response rating, Crabgrass, Large",[9]; [24],100
same,"Plant response rating, Crabgrass, Large",[9]; [25],100
same,"Plant response rating, Morningglory",[10]; [20],90
same,"Plant response rating, Morningglory",[10]; [21],100
same,"Plant response rating, Morningglory",[10]; [22],0
same,"Plant response rating, Morningglory",[10]; [23],10
same,"Plant response rating, Morningglory",[10]; [24],35
same,"Plant response rating, Morningglory",[10]; [25],55
same,Oilseed Rape plant response rating,[11]; [19],50
same,"Plant response rating, Oilseed Rape",[11]; [20],60
same,"Plant response rating, Oilseed Rape",[11]; [21],65
same,"Plant response rating, Oilseed Rape",[11]; [22],0
same,"Plant response rating, Oilseed Rape",[11]; [23],0
same,"Plant response rating, Oilseed Rape",[11]; [24],85
same,"Plant response rating, Oilseed Rape",[11]; [25],95
same,Pigweed plant response rating,[12]; [19],90
same,"Plant response rating, Pigweed",[12]; [20],100
same,"Plant response rating, Pigweed",[12]; [21],100
same,"Plant response rating, Pigweed",[12]; [22],90
same,"Plant response rating, Pigweed",[12]; [23],100
same,"Plant response rating, Pigweed",[12]; [24],100
same,"Plant response rating, Pigweed",[12]; [25],100
same,Ragweed plant response rating,[13]; [19],5
same,"Plant response rating, Ragweed",[13]; [20],10
same,"Plant response rating, Ragweed",[13]; [21],30
same,"Plant response rating, Ragweed",[13]; [22],0
same,"Plant response rating, Ragweed",[13]; [23],0
same,"Plant response rating, Ragweed",[13]; [24],30
same,"Plant response rating, Ragweed",[13]; [25],40
same,Soybean plant response rating,[14]; [19],30
same,"Plant response rating, Soybean",[14]; [20],60
same,"Plant response rating, Soybean",[14]; [21],60
same,"Plant response rating, Soybean",[14]; [22],0
same,"Plant response rating, Soybean",[14]; [23],5
same,"Plant response rating, Soybean",[14]; [24],10
same,"Plant response rating, Soybean",[14]; [25],25
same,Velvetleaf plant response rating,[15]; [19],30
same,"Plant response rating, Velvetleaf",[15]; [20],50
same,"Plant response rating, Velvetleaf",[15]; [21],65
same,"Plant response rating, Velvetleaf",[15]; [22],35
same,"Plant response rating, Velvetleaf",[15]; [23],30
same,"Plant response rating, Velvetleaf",[15]; [24],75
same,"Plant response rating, Velvetleaf",[15]; [25],85
same,Waterhemp plant response rating,[16]; [19],100
same,"Plant response rating, Waterhemp",[16]; [20],100
same,"Plant response rating, Waterhemp",[16]; [21],100
same,"Plant response rating, Waterhemp",[16]; [22],95
same,"Plant response rating, Waterhemp",[16]; [23],100
same,"Plant response rating, Waterhemp",[16]; [24],98
same,"Plant response rating, Waterhemp",[16]; [25],100
same,Wheat plant response rating,[17]; [19],5
same,"Plant response rating, Wheat",[17]; [20],5
same,"Plant response rating, Wheat",[17]; [21],5
same,"Plant response rating, Wheat",[17]; [22],0
same,"Plant response rating, Wheat",[17]; [23],0
same,"Plant response rating, Wheat",[17]; [24],0
same,"Plant response rating, Wheat",[17]; [25],0
same,"Nutsedge, Yellow plant response rating",[18]; [19],5
same,"Plant response rating, Nutsedge, Yellow",[18]; [20],5
same,"Plant response rating, Nutsedge, Yellow",[18]; [21],5
same,"Plant response rating, Nutsedge, Yellow",[18]; [22],0
same,"Plant response rating, Nutsedge, Yellow",[18]; [23],0
same,"Plant response rating, Nutsedge, Yellow",[18]; [24],0
same,"Plant response rating, Nutsedge, Yellow",[18]; [25],5
